Measurements published in ChEMBL document CHEMBL4765450, “The components and activities analysis of a novel anticoagulant candidate dHG-5” (Eur J Med Chem, 2020).
Active and inactive are the calls of the source. No cut-off for these calls is given here.

Experiments:
[1] = target: Prothrombin (Homo sapiens) (UniProt P00734); test: Inhibition of factor 2a (unknown origin) at IC90 preincubated for 1 min followed by chromogenic substrate addition and measured for 2 mins in presence of AT-III; conditions: time 3.0 min
Rattus norvegicus [2] = test: Antithrombotic activity in thromboplastin and stasis-induced Sprague-Dawley rat deep venous thrombosis model assessed as reduction in venous thrombosis at 1.52 mg/kg, sc administered 1 hr prior to thromboplastin addition for 20 secs followed by establishment of stasis for 20 mins relative to dHG-5; assay type: functional; conditions: time 80.33 min, 1.339 h
[3] = target: Coagulation factor XI (Homo sapiens) (UniProt P03951); test: Inhibition of factor 11a (unknown origin) at IC50 using S-2366 as substrate preincubated for 1 min followed by chromogenic substrate addition and measured for 2 mins; conditions: time 3.0 min
Coagulation factor XI (Homo sapiens), sequence (P03951 19-387 limits assumed): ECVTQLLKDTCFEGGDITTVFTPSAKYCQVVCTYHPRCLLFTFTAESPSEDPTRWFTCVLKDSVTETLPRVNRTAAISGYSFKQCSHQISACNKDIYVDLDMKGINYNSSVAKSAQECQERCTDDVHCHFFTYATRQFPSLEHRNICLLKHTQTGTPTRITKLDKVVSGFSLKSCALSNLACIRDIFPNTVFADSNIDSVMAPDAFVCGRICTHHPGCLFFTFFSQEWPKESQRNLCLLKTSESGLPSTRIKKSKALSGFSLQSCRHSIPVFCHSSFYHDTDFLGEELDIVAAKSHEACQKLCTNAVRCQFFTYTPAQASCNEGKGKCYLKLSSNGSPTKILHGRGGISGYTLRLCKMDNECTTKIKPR
Coagulation factor XI (Homo sapiens), sequence (P03951 388-625 limits assumed): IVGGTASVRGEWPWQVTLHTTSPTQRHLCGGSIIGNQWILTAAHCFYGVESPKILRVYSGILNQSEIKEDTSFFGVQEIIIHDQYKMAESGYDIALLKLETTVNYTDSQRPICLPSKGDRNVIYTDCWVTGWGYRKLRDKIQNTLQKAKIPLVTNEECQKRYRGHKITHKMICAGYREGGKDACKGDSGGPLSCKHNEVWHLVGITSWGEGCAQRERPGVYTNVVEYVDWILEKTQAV

Plasma [4] = test: Anticoagulation activity in HCII-deficient human plasma preincubated for 2 mins followed by APTT reagent and measured after 3 mins by coagulometric method; assay type: functional, cell-free; conditions: time 5.0 min
[5] = target: T1, Coagulation factor XII (Homo sapiens) (UniProt P00748); test: Inhibition of factor 12a (unknown origin) at IC50 using kallikrein chromogenic substrate preincubated for 1 min followed by chromogenic substrate addition and measured for 2 mins in presence of AT-III; conditions: time 3.0 min
T1 sequence (whole entry): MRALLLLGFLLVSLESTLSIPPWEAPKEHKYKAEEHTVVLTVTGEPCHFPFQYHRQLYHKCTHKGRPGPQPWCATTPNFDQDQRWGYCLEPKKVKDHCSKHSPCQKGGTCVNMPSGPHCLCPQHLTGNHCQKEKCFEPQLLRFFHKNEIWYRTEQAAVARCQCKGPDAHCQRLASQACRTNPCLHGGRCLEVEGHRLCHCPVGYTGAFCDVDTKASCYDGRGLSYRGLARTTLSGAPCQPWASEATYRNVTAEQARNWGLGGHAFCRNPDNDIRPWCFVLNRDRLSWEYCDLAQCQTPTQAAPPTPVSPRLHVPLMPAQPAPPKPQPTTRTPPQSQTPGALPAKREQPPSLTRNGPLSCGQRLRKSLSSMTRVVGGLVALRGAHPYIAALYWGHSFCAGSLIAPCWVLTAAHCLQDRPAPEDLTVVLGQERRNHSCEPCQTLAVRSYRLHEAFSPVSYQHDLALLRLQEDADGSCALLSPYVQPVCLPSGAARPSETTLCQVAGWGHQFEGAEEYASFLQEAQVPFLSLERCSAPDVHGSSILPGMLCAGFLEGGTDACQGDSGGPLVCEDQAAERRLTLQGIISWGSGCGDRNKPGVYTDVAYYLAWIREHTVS

[6] = target: T1, Coagulation factor XII (Homo sapiens); test: Inhibition of factor 12a (unknown origin) at IC50 using kallikrein chromogenic substrate preincubated for 1 min followed by chromogenic substrate addition and measured for 2 mins; conditions: time 3.0 min
[7] = target: Coagulation factor X (Homo sapiens) (UniProt P00742); test: Inhibition of factor 10a (unknown origin) at IC50 preincubated for 1 min followed by chromogenic substrate addition and measured for 2 mins in presence of AT-III; conditions: time 3.0 min
Coagulation factor X (Homo sapiens), sequence (P00742 41-179 limits assumed): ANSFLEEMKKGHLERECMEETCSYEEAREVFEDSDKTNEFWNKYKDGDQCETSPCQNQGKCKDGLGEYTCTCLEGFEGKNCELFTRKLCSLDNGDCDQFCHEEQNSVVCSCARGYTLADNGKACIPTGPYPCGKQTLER
Coagulation factor X (Homo sapiens), sequence (P00742 235-488 limits assumed): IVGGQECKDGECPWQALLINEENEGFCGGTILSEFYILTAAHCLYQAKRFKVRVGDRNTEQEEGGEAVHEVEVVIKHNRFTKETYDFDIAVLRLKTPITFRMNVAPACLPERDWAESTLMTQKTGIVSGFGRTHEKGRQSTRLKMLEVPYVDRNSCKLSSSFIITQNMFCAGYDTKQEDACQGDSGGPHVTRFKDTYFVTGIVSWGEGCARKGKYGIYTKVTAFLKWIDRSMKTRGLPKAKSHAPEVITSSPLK

Coagulation factor IX [8] = target: T2, Coagulation factor IX (Homo sapiens, UniProt P00740); test: Inhibition of factor 9a (unknown origin) binding to immobilized biotinylated oHG-11 by biolayer interferometry relative to dHG-5
T2 sequence (P00740 47-191 limits assumed): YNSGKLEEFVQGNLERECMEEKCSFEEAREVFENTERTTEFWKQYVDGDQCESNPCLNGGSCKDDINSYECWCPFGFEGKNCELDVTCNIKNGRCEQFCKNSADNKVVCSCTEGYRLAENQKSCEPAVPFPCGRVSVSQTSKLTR
T2 sequence (P00740 227-461 limits assumed): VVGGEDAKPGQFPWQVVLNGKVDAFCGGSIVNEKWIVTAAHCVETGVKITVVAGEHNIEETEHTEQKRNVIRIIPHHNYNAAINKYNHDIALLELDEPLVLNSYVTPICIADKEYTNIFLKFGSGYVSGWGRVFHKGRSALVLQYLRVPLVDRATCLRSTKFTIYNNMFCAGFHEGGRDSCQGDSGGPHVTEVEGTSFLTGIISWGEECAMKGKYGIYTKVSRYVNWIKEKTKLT

Plasma [9] = test: Anticoagulation activity in AT-III-deficient human plasma preincubated for 2 mins followed by APTT reagent and measured after 3 mins by coagulometric method; assay type: functional, cell-free; conditions: time 5.0 min
[10] = target: T3, Coagulation factor IX/VIII (Homo sapiens) (UniProt P00740+P00451); test: (§1) Inhibition of human citrated plasma iXase (factor 8a-factor 9a complex) preincubated for 2 mins followed by factor 10 addition and measured after 1 min by FXa chromogenic substrate SXa-11 based assay relative to dHG-5; assay type: protein-complex assay; conditions: time 3.0 min
[11] = target: T4, Coagulation factor VII (Homo sapiens) (UniProt P08709); test: Inhibition of factor 7a (unknown origin) at IC50 using pefachrome factor VIIa as substrate preincubated for 1 min followed by chromogenic substrate addition and measured for 2 mins; conditions: time 3.0 min
T4 sequence (whole entry): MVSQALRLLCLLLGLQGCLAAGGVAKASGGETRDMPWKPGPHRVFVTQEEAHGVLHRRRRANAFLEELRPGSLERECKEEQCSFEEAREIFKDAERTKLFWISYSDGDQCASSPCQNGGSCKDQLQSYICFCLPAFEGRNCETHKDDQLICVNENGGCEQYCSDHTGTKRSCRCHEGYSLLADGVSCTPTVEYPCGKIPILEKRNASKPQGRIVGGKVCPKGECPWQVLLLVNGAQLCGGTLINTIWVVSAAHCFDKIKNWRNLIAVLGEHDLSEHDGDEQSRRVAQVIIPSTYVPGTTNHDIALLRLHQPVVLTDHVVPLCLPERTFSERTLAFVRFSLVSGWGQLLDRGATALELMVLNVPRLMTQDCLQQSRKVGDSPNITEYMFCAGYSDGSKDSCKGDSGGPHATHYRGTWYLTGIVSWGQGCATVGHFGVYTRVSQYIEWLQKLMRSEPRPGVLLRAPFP

Plasma [12] = test: Induction of platelet aggregation in rat wash platelet at plasma peak concentration of 10 times anti-thrombosis ED50 measured after 10 mins by light transmission aggregometry
[13] = target: Prothrombin (Homo sapiens) (UniProt P00734); test: Inhibition of factor 2a (unknown origin) at IC50 preincubated for 1 min followed by chromogenic substrate addition and measured for 2 mins in presence of AT-III; conditions: time 3.0 min
Rattus norvegicus [14] = test: Antithrombotic activity in thromboplastin and stasis-induced Sprague-Dawley rat deep venous thrombosis model assessed as reduction in venous thrombosis by measuring activity potency of oligosaccharides multiplied by the percentage of oligosaccharides in dHG-5 at 1.52 mg/kg, sc administered 1 hr prior to thromboplastin addition for 20 secs followed by establishment of stasis for 20 mins relative …; assay type: functional; conditions: time 80.33 min, 1.339 h
Coagulation factor IX [15] = target: T2, Coagulation factor IX; test: Inhibition of factor 9a (unknown origin) binding to immobilized biotinylated oHG-11 assessed as activity potency of oligosaccharides multiplied by the percentage of oligosaccharides in dHG-5 by biolayer interferometry relative to dHG-5
Plasma [16] = test: Induction of platelet aggregation in human platelet rich plasma at plasma peak concentration of 10 times anti-thrombosis ED50 measured after 10 mins by light transmission aggregometry
[17] = target: Prothrombin (Homo sapiens) (UniProt P00734); test: Inhibition of factor 2a (unknown origin) at IC50 preincubated for 1 min followed by chromogenic substrate addition and measured for 2 mins; conditions: time 3.0 min
Plasma [18] = test: Anticoagulation activity in human plasma assessed as drug level causing 20 times doubling of APTT by measuring activity potency of oligosaccharides multiplied by the percentage of oligosaccharides in dHG-5 preincubated for 2 mins followed by APTT reagent and measured after 3 mins by coagulometric method relative to dHG-5; assay type: functional; conditions: time 5 min
[19] = target: Coagulation factor XI (Homo sapiens) (UniProt P03951); test: Inhibition of factor 11a (unknown origin) at IC50 using S-2366 as substrate preincubated for 1 min followed by chromogenic substrate addition and measured for 2 mins in presence of AT-III; conditions: time 3.0 min
[20] = target: T4, Coagulation factor VII (Homo sapiens); test: Inhibition of factor 7a (unknown origin) at IC50 using pefachrome factor VIIa as substrate preincubated for 1 min followed by chromogenic substrate addition and measured for 2 mins in presence of AT-III; conditions: time 3.0 min
Rattus norvegicus [21] = test: Antithrombotic activity in thromboplastin and stasis-induced Sprague-Dawley rat deep venous thrombosis model assessed as reduction in venous thrombosis at 1.52 mg/kg, sc administered 1 hr prior to thromboplastin addition for 20 secs followed by establishment of stasis for 20 mins; assay type: functional; conditions: 1.339 h, time 80.33 min
[22] = target: Coagulation factor X (Homo sapiens) (UniProt P00742); test: Inhibition of factor 10a (unknown origin) at IC90 preincubated for 1 min followed by chromogenic substrate addition and measured for 2 mins in presence of AT-III relative to control; conditions: time 3.0 min
[23] = target: Coagulation factor XI (Homo sapiens) (UniProt P03951); test: Inhibition of factor 11a (unknown origin) at IC90 using S-2366 as substrate preincubated for 1 min followed by chromogenic substrate addition and measured for 2 mins in presence of AT-III; conditions: time 3.0 min
[24] = target: T3, Coagulation factor IX/VIII (Homo sapiens); test: as §1, with “complex) assessed as activity potency of oligosaccharides multiplied by the percentage of oligosaccharides in dHG-5” for “complex)”; assay type: protein-complex assay; conditions: time 3.0 min
Plasma [25] = test: Anticoagulation activity in human plasma assessed as drug level causing 20 times doubling of APTT preincubated for 2 mins followed by APTT reagent and measured after 3 mins by coagulometric method relative to dHG-5; assay type: functional; conditions: time 5 min
[26] = target: Coagulation factor X (Homo sapiens) (UniProt P00742); test: Inhibition of factor 10a (unknown origin) at IC50 preincubated for 1 min followed by chromogenic substrate addition and measured for 2 mins; conditions: time 3.0 min

inhibition [1]: Active
inhibition [3]: inactive
inhibition [5]: inactive
inhibition [6]: inactive
inhibition [7]: inactive
Ratio (Coagulation factor IX [8]): 151 U
Ratio [10]: 478 U
inhibition (active/not active) [11]: inactive
Activity (Plasma [12]): Not Active
inhibition [13]: inactive
Ratio (Coagulation factor IX [15]): 4.46 U
Activity (Plasma [16]): Not Active
inhibition [17]: inactive
inhibition [19]: inactive
inhibition [20]: inactive
inhibition [22]: inactive
inhibition [23]: Active
Ratio [24]: 14.1 U
inhibition [26]: inactive
SMILES: CC(=O)N[C@H]1[C@H](O[C@@H]([C@H](O[C@@H]2O[C@@H](C)[C@@H](OS(=O)(=O)[O-])[C@@H](OS(=O)(=O)O)[C@@H]2O)[C@@H](O)CO)[C@H](O)C(=O)[O-])O[C@H](COS(=O)(=O)[O-])[C@H](OS(=O)(=O)[O-])[C@@H]1O[C@@H]1O[C@H](C(=O)[O-])[C@@H](O[C@@H]2O[C@H](COS(=O)(=O)[O-])[C@H](OS(=O)(=O)[O-])[C@H](O[C@@H]3O[C@H](C(=O)[O-])[C@@H](O[C@@H]4O[C@H](COS(=O)(=O)[O-])[C@H](OS(=O)(=O)[O-])[C@H](O[C@@H]5O[C@H](C(=O)[O-])[C@@H](O[C@@H]6O[C@H](COS(=O)(=O)[O-])[C@H](OS(=O)(=O)[O-])[C@H](O[C@@H]7O[C@H](C(=O)[O-])[C@@H](O[C@@H]8O[C@H](COS(=O)(=O)[O-])[C@H](OS(=O)(=O)[O-])[C@H](O[C@@H]9O[C@H](C(=O)[O-])[C@@H](O[C@@H]%10O[C@H](COS(=O)(=O)[O-])[C@H](OS(=O)(=O)[O-])[C@H](O[C@@H]%11O[C@H](C(=O)[O-])[C@@H](O[C@@H]%12O[C@H](COS(=O)(=O)[O-])[C@H](OS(=O)(=O)[O-])[C@H](O[C@@H]%13O[C@H](C(=O)[O-])[C@@H](O[C@@H]%14O[C@H](COS(=O)(=O)[O-])[C@H](OS(=O)(=O)[O-])[C@H](O[C@@H]%15O[C@H](C(=O)[O-])[C@@H](O[C@@H]%16O[C@H](COS(=O)(=O)[O-])[C@H](OS(=O)(=O)[O-])[C@H](O[C@@H]%17OC(C(=O)O)=C[C@H](O[C@@H]%18O[C@@H](C)[C@@H](OS(=O)(=O)[O-])[C@@H](OS(=O)(=O)O)[C@@H]%18O)[C@H]%17O)[C@H]%16NC(C)=O)[C@H](O[C@@H]%16O[C@@H](C)[C@@H](OS(=O)(=O)[O-])[C@@H](OS(=O)(=O)O)[C@@H]%16O)[C@H]%15O)[C@H]%14NC(C)=O)[C@H](O[C@@H]%14O[C@@H](C)[C@@H](OS(=O)(=O)[O-])[C@@H](OS(=O)(=O)O)[C@@H]%14O)[C@H]%13O)[C@H]%12NC(C)=O)[C@H](O[C@@H]%12O[C@@H](C)[C@@H](OS(=O)(=O)[O-])[C@@H](OS(=O)(=O)O)[C@@H]%12O)[C@H]%11O)[C@H]%10NC(C)=O)[C@H](O[C@@H]%10O[C@@H](C)[C@@H](OS(=O)(=O)[O-])[C@@H](OS(=O)(=O)O)[C@@H]%10O)[C@H]9O)[C@H]8NC(C)=O)[C@H](O[C@@H]8O[C@@H](C)[C@@H](OS(=O)(=O)[O-])[C@@H](OS(=O)(=O)O)[C@@H]8O)[C@H]7O)[C@H]6NC(C)=O)[C@H](O[C@@H]6O[C@@H](C)[C@@H](OS(=O)(=O)[O-])[C@@H](OS(=O)(=O)O)[C@@H]6O)[C@H]5O)[C@H]4NC(C)=O)[C@H](O[C@@H]4O[C@@H](C)[C@@H](OS(=O)(=O)[O-])[C@@H](OS(=O)(=O)O)[C@@H]4O)[C@H]3O)[C@H]2NC(C)=O)[C@H](O[C@@H]2O[C@@H](C)[C@@H](OS(=O)(=O)[O-])[C@@H](OS(=O)(=O)O)[C@@H]2O)[C@H]1O.[Na+].[Na+].[Na+].[Na+].[Na+].[Na+].[Na+].[Na+].[Na+].[Na+].[Na+].[Na+].[Na+].[Na+].[Na+].[Na+].[Na+].[Na+].[Na+].[Na+].[Na+].[Na+].[Na+].[Na+].[Na+].[Na+].[Na+].[Na+].[Na+].[Na+].[Na+].[Na+].[Na+].[Na+].[Na+].[Na+].[Na+]
Ratio (Rattus norvegicus [2]): 233.18 U
Activity (Plasma [4]): Active
Activity (Plasma [9]): Active
Ratio (Rattus norvegicus [14]): 7 U
Ratio (Plasma [18]): 12.57 U
inhibition in vivo at 1.52 mg/kg (Rattus norvegicus [21]): 36.4%
Ratio (Plasma [25]): 426.19 U
